We go through 27 compounds from patent US20050261290A1, “Novel compounds of proline and morpholine derivatives” (priority 2004, published 2005).

Read-outs that look alike come from different tables or passages of the source.

One experiment deals with human 11b-hsd-1 (Homo sapiens, UniProt P28845). Nature of the experiment: Inhibition constant Ki of human 11b-hsd-1 (3H-cortisone to 3H-cortisol conversion, HPLC). The settings on record: for Ki: apparent Ki, read-out: Ki app. It counts as biochemical.
A further experiment concerns normal subjects. The conditions noted are these: ingestion; cited from earlier work.
The subject of another experiment is bone nodule formation. The settings on record: cited from earlier work.
The test system of another experiment is healthy human volunteers. The settings on record: healthy human volunteers treated with carbenoxolone; cited from earlier work.

human 11b-hsd-1, sequence (P28845 whole entry): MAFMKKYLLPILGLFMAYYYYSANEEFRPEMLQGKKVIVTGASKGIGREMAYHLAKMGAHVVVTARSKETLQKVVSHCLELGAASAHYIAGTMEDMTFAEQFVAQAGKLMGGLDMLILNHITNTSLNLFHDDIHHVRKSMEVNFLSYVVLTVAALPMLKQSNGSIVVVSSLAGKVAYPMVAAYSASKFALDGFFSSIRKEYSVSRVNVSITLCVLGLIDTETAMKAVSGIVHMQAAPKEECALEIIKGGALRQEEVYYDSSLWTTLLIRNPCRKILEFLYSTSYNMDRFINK
Description for human 11b-hsd-1: In each well, varying amounts of compounds are incubated with a fixed amount of 11b-hsd-1 (4 nM) and NADPH (500 μM) for 30 to 40 min at room temperature in the assay buffer. The enzyme concentration was determined by titration using reversible tight-binding inhibitors. […] The area of 3H-cortisol is calculated and plotted versus time to determine a linear velocity. […] Where vi, and vo are the rates of cortisol formation in the presence and in the absence of inhibitor, respectively, I is the inhibitor concentration and E is the 11 b-hsd-1 concentration in the assay buffer. […] NADPH, Glucose-6-Phosphate (G6P), and Glucose-6-Phosphate dehydrogenase was purchased from Sigma.

As to `O=C(NC1C2CC3CC(C2)CC1C3)[C@@H]1C[C@H](Oc2ccccc2F)CN1` (stereo partly shown) [Example 341], testing at 0.1 µM on human 11b-hsd-1 (0.1 μM compound) gave an inhibition of 100%. The Ki on human 11b-hsd-1 was 0.7 nM.

Consider `COc1ccccc1CNC(=O)[C@H]1CCCN1CCc1ccccc1` [Example 269], for which the inhibition at 0.1 µM against human 11b-hsd-1 (0.1 μM compound) amounted to 77.8%. The Ki on human 11b-hsd-1 stood at 66 nM.

On human 11b-hsd-1 (compound at 0.1 μM), `N#Cc1ccc(CN2CCCC(C(=O)NC3C4CC5CC(C4)CC3C5)C2)cc1` (stereo not shown) [Example 163] came in with an inhibition at 0.1 µM of 100%.

With `CC(C)CN1CCOC[C@@H]1C(=O)NCc1ccc(F)cc1` [Example 34], the Ki at human 11b-hsd-1 (human 11b-hsd-1) was determined as 18 nM. For the same compound, on human 11b-hsd-1 (compound at 0.1 μM), the inhibition at 0.1 µM came to 79%.

On to `COc1cccc(CNC(=O)[C@H]2CCCN2CC(C)C)c1` [Example 260], for which 0.1 µM produced 89.6% inhibition on human 11b-hsd-1 (0.1 μM compound). Also, the Ki on human 11b-hsd-1 was determined as 16 nM.

`N#Cc1ccc(CN2CCC[C@@H]2C(=O)NCC2CCCCC2)cc1` [Example 328] returned an inhibition at 0.1 µM on human 11b-hsd-1 (0.1 μM compound) of 100%. In addition, the Ki on human 11b-hsd-1 came to 3.2 nM.

`O=C(NC1CCCCC1)[C@H]1CCCN1CCC(F)(F)F` [Example 127] came in with an inhibition at 0.1 µM against human 11b-hsd-1 (compound at 0.1 μM) of 100%.

For the compound `O=C(NC1CCCCC1)[C@@H]1C[C@H](Oc2ccc(Cl)cc2)CN1` [Example 370], on human 11b-hsd-1 (0.1 μM compound), 0.1 µM produced 88.7% inhibition. Further, on human 11b-hsd-1, the Ki was 10 nM.

For `N#Cc1ccc(CN2CCOC[C@@H]2C(=O)N[C@@H]2CCCc3ccccc32)cc1` [Example 315], at 0.1 µM the inhibition at human 11b-hsd-1 (0.1 μM compound) was 96.1%. Moreover, the Ki on human 11b-hsd-1 turned out to be 6.63 nM.

In the case of `O=C(NC1C2CC3CC(C2)CC1C3)[C@H]1COCCN1CC1CCCC1` (stereo partly shown) [Example 63], the Ki at human 11b-hsd-1 (human 11b-hsd-1) was 1 nM. 0.1 µM produced 100% inhibition against human 11b-hsd-1 (compound at 0.1 μM).

For `O=C(NC1C2CC3CC(C2)CC1C3)[C@@H]1C[C@H](Oc2cc(F)ccc2F)CN1` (stereo partly shown) [Example 352], testing at 0.1 µM on human 11b-hsd-1 (0.1 μM compound) gave an inhibition of 100%. For the same compound, the Ki at human 11b-hsd-1 stood at 1 nM.

In turn, `CCCN1CCC[C@H](C(=O)NC2C3CC4CC(C3)CC2C4)C1` (stereo partly shown) [Example 125] displayed an inhibition at 0.1 µM against human 11b-hsd-1 (compound at 0.1 μM) of 81%.

As for `CC1(C)[C@@H](OC(=O)CCC(=O)O)CC[C@]2(C)[C@H]3C(=O)C=C4[C@@H]5C[C@@](C)(C(=O)O)CC[C@]5(C)CC[C@@]4(C)[C@]3(C)CC[C@@H]12` [carbenoxolone], the “reduction of the intraocular pressure” value with normal subjects was 20%. The “negative effect of glucocorticoid on bone nodule formation” value with bone nodule formation is listed as “blocked”. The hepatic insulin sensitivity entry in the experiment on healthy human volunteers was “improved”.

With `O=C(NC1CCCCC1)[C@H]1CCCN1CC1CCCO1` (stereo partly shown) [Example 98], the “% inh @ 0.1 μM” value at human 11b-hsd-1 (compound at 0.1 μM, 0.1 µM) turned out to be 41%.

At human 11b-hsd-1 (compound at 0.1 μM), `CCCN1CCC[C@@H]1C(=O)NC1CC2CCC1C2` (stereo partly shown) [Example 91] returned an inhibition at 0.1 µM of 100%.

Regarding `O=C(NC1C2CC3CC(C2)CC1C3)[C@H]1C[C@@H](O)CN1CC1CCCC1` (stereo partly drawn) [Example 28, (4R)-N-2-adamantyl-1-cyclopentylmethyl-4-hydroxy-D-prolinamide], the Ki on human 11b-hsd-1 (human 11b-hsd-1) is 1 nM. In addition, testing at 0.1 µM against human 11b-hsd-1 (compound at 0.1 μM) gave an inhibition of 100%.

`O=C(NC12CC3CC(CC(C3)C1)C2)[C@H]1CCCC[C@H]1NCc1ccc(Cl)cc1` (racemic) [Example 201] came in with an inhibition at 0.1 µM against human 11b-hsd-1 (0.1 μM compound) of 100%. Further, the Ki at human 11b-hsd-1 came out at 5.9 nM.

Take `O=C(NC12CC3CC(CC(C3)C1)C2)C1COCCN1CC1CCCCC1` (stereo not shown) [Example 181]: at human 11b-hsd-1 (human 11b-hsd-1), the Ki worked out at 1.8 nM. At human 11b-hsd-1 (compound at 0.1 μM), this compound had an inhibition at 0.1 µM of 100%.

`CCCN1CCC[C@@H]1C(=O)NC12C3C4C1C1C2C3C41C` (stereo partly shown) [Example 123] registered an inhibition at 0.1 µM on human 11b-hsd-1 (compound at 0.1 μM) of 100%.

On human 11b-hsd-1 (0.1 μM compound), `CC(C)CN1CCC[C@@H]1C(=O)NCc1c(F)cccc1F` [Example 239] registered an inhibition at 0.1 µM of 97.6%. On human 11b-hsd-1, the Ki came to 5.62 nM.

On to `O=C(N[C@H]1c2ccccc2C[C@H]1O)[C@H]1COCCN1Cc1ccccc1` [Example 301], for which at 0.1 µM the inhibition against human 11b-hsd-1 (0.1 μM compound) was 89.2%. Besides, on human 11b-hsd-1, the Ki amounted to 11.1 nM.

`O=C(NC1CCCCC1)[C@H]1CCCN1Cc1ccccc1` [Example 282] displayed an inhibition at 0.1 µM against human 11b-hsd-1 (0.1 μM compound) of 100%. In addition, the Ki at human 11b-hsd-1 was determined as 2.34 nM.

On to `O=C(NC12CC3CC(CC(C3)C1)C2)[C@H]1CCCN1Cc1ccccn1` [Example 250], for which testing at 0.1 µM at human 11b-hsd-1 (0.1 μM compound) gave an inhibition of 100%. Moreover, the Ki on human 11b-hsd-1 was found to be 5.9 nM.

At human 11b-hsd-1 (0.1 μM compound), `O=C(NC12CC3CC(CC(C3)C1)C2)[C@H]1CCCN1Cc1ccccc1` [Example 248] registered an inhibition at 0.1 µM of 100%. At human 11b-hsd-1, the Ki was 1.3 nM.

`O=C(NC1CCCCC1)[C@H]1CCCN1CC1CCOCC1` [Example 99]: on human 11b-hsd-1 (human 11b-hsd-1), the Ki came to 8 nM. This compound registered an inhibition at 0.1 µM on human 11b-hsd-1 (compound at 0.1 μM) of 91%.

Regarding `CC(C)Oc1ccccc1O[C@@H]1CN[C@H](C(=O)NC2C3CC4CC(C3)CC2C4)C1` (stereo partly shown) [Example 364], testing at 0.1 µM on human 11b-hsd-1 (0.1 μM compound) gave an inhibition of 100%. For the same compound, the Ki at human 11b-hsd-1 is 4.6 nM.

On to `O=C(NC1C2CC3CC(C2)CC1C3)[C@H]1COCCN1Cc1ccccc1` (stereo partly shown) [Example 2], for which the Ki on human 11b-hsd-1 (human 11b-hsd-1) worked out at 2.4 nM. This compound also displayed an inhibition at 0.1 µM against human 11b-hsd-1 (compound at 0.1 μM) of 100%.
